According to paper PMC5603603, “Linoleic and palmitoleic acid block streptokinase-mediated plasminogen activation and reduce severity of invasive group A streptococcal infection” (Scientific Reports, 2017):

System: recombinant cluster 2a type streptokinase
Assay: Plasminogen assay using recombinant streptokinase
Format: biochemical, group A streptococcal strain A614
Conditions: 40 µg/ml
Description: An overnight culture of the strain A614 (in THY medium) was centrifuged at 5000 rpm for 10 min. The supernatant was discarded and the pellet was resuspended in TE-buffer (from DNeasy blood and tissue kit, Qiagen) containing 10% DNase-free RNase (10 µg/ml). The suspension was transferred to a vial filled with zirconium beads. Bacterial cells were lysed using a fastprep machine (MP Biomedical) twice for 30 sec at 4.0 m/sec. Then AL-buffer (from DNeasy blood and tissue kit, Qiagen) was added and beads were spun down for 30 sec. The lysate was transferred to a new reaction tube and proteinase K was added. The tube was inverted and incubated for 30 min at 56 °C. Then 100% ethanol was added and genomic DNA was isolated according to the protocol of the DNeasy blood and tissue kit (Qiagen). […] Using a gel electrophoresis, the 1500 bp product was detected, cut out and purified using a PCR clean-up, gel extraction kit (Machery-Nagel). […]
75 µl of the recombinant streptokinase (concentration 1 mg/ml) was added to the wells of a 96well plate followed by 69 µl PBS, 5 µl S-2251 (10 mM stock solution, chromogenic substrate for the detection of plasmin, Chromogenix) and 1 µl plasminogen (1 mg/ml stock solution, Biopur or Sigma). […] The absorption was measured at the beginning of the reaction and then every hour at 405 nm after 3 sec of shaking on a Tecan Sunrise ELISA Reader using Magellan software. […]

Row | SMILES | inhibition of plasminogen activation
1 | CCCCC/C=C\C/C=C\CCCCCCCC(=O)O [LA, linoleic acid] | 60–70%
2 | CCCCCC/C=C\CCCCCCCC(=O)O [PA, palmitoleic acid] | 60–70%
